Legend:
[1] = tested on: Karpas 422 cells (EZH2 Y641N); test: Karpas 422 cell viability (Cell Titre Glo); assay type: cell-based; details: Homo sapiens, CTG viability, Day 4, Day 7 or Day 11 (time point not given), read-out: IC50 (nM), Inhibiting Proliferation of Cells Expressing an Activating Mutant Form of EZH2
Protocol: Karpas 422 cell line is a human B cell non-Hodgkin's lymphoma cell line established from a patient having DLBCL. This EZH2 heterozygotic cell line expresses a mutant form of EZH2 enzyme (Y641N) that increases histone H3 methylation and this mutation has been implicated in the tumorgenesis of lymphomas, such as DLBCL.
Karpas 422 cells (PHE cat no., 06101702) were cultured in RPMI medium supplemented with 20% fetal bovine serum and 1% penicillin/1% streptomycin and plated at a density of 1000 cells/90 μl/well in 96 well white assay plates. A dose response curve for compounds of the present invention was determined by adding a 10 μl aliquot of stock solutions of varying concentrations of compounds to the same medium in each well, over a concentration range of 10 μM using 3-fold dilutions to a final concentration of 1.5 nM. The plates were incubated at 37° C. for predetermined time periods, Day 4, Day 7, or Day 11, and the viability of the cells was measured using a CTG assay kit (Cell Titre Glo; Promega cat. no G7573) on Day 4 and Day 7 in accordance with the manufacturer's instructions.
For the viability assay for the Day 11 plates, the plates were subjected to centrifugation at 1100 rpm for five minutes on Day 7 and the supernatant was removed by aspiration. The cells were resuspended in 90 μl aliquot of the appropriate growth medium lacking the compound followed by addition of 10 μl of a 10× stock of the same compound at the same concentration. The viability of the Day 11 cells was measured using the CTG assay kit described above in accordance with the manufacturer's instructions. The IC50 values for each compound at each predetermined time point were calculated using Graph pad PRISM software and the results are shown in Table 8. A=≤250 nM; B=[…]−≤500 nM; C=>500 nM and N.D.=not determined.

[2] = tested on: PRC2-mediated histone H3 methylation in Pfeiffer cells (EZH2 A677G); test: Tri-Methyl Histone H3 (Lys 27) sandwich ELISA in Pfeiffer cells; assay type: cell-based; details: Homo sapiens, 96 hours incubation, H3K27me3 ELISA, read-out: IC50 (nM), Inhibition of EZH2-mediated Histone H3 Trimethylation
Text: The Pfeiffer cell line was established from a […] from a patient having metastatic diffuse large B-cell lymphoma (DLBCL). This cell line expresses a mutant form of the EZH2 enzyme (A677G) that results in enhanced EZH2 activity leading to increased methylation of histone H3 Lys27. Increased trimethylation of histone H3 Lys27 is believed to be implicated in tumorgenesis and poor clinical prognosis in lymphomas (McCabe et al., (2012) Nature 492:108-112).
Inhibition of PRC2-mediated histone H3 methylation by compounds of Formula (I) was measured by ELISA using a Tri-Methyl Histone H3 (Lys 27) Sandwich ELISA Kit (Cell Signaling Tech #7866C) in accordance with the manufacturer's instructions. Briefly, Pfeiffer cells were cultured in RPMI medium supplemented with 10% fetal bovine serum and 1% penicillin and 1% streptomycin in 96 well culture plates at 37° C. to a density of 8000 cells/90 μl/well and the cells were harvested. A series of 3-fold serial dilutions of each test compound of Formula (I) were prepared in RPMI medium and added to the cells at final concentrations ranging from […] to 0.15 nM. The plates were incubated at 37° C. for 96 hours.
After incubation, the cells were pelleted by centrifugation in a pre-cooled 4° C. rotor at 1,100 rpm for 10 min and the supernatant was removed by aspiration. The cell pellet was resuspended in 55 μl of Lysis Buffer (0.4M HCl) and incubated on ice with periodic shaking for 30 minutes. The lysed cells were subjected to centrifugation at 4,200 rpm for 10 min at 4° C. and the supernatant containing acid-soluble proteins was collected and the remainder discarded. The acid-soluble proteins were brought to a neutral pH by the addition of 20 μl of Neutralization Buffer (1 M Sodium phosphate, dibasic (pH 12.5), 2.5 mM DTT and 1 mM PMSF) and the neutralized lysates were analyzed by ELISA.
A 65 μl aliquot of each cell lysate was added to a well of a microwell strip, the microwells were sealed using tape and incubated either at 37° C. for two hours or at 4° C. overnight. After incubation, the tape was removed at the microwells were washed four times using 200 μl of 1× Wash Buffer. To each washed microwell, a 100 μl aliquot of an anti-trimethyl histone H3 Lys27 Detection Antibody solution was added and the microwells were incubated at 37° C. for one hour. The Detection Antibody solution was removed by aspiration and the wells were washed four times each using 200 μl of 1× Wash Buffer.
A 100 μl aliquot of an HRP-linked secondary antibody was added to each well, the wells were sealed with tape and incubated at 37° C. for 30 min. The HRP-linked secondary antibody solution was removed by aspiration and the wells were washed four times using 200 μl of 1× Wash Buffer. A 100 μl aliquot of a TMB substrate was added to each well, the wells were sealed with tape and incubated at 37° C. for 10 min or 25° C. for 30 min. The reaction was stopped by the addition of 100 μl aliquot of a STOP solution and the plate was shaken briefly. The degree of histone H3 trimethylation was determined using a spectrophotometric readout by measuring the absorbance at 450 nm and then calculating the amount of trimethylated histone H3. A=≤100 nM; B=>100 nM−≤500 nM; C=>500 nM and N.D.=not determined.

[3] = target: purified human, His-tagged PRC2 complex (Homo sapiens (Human), UniProt O75530); test: Hot Spot HMT assay, inhibition of PRC2 enzymatic activity; assay type: biochemical; details: 10 nM PRC2 complex, 0.05 mg/ml core histone H3, 1 μM 3H-SAM, 1 hr at 30° C.; read-out: IC50, Inhibition of PRC2-mediated Enzymatic Activity
Sequence of purified human, His-tagged PRC2 complex (Q15910 whole entry): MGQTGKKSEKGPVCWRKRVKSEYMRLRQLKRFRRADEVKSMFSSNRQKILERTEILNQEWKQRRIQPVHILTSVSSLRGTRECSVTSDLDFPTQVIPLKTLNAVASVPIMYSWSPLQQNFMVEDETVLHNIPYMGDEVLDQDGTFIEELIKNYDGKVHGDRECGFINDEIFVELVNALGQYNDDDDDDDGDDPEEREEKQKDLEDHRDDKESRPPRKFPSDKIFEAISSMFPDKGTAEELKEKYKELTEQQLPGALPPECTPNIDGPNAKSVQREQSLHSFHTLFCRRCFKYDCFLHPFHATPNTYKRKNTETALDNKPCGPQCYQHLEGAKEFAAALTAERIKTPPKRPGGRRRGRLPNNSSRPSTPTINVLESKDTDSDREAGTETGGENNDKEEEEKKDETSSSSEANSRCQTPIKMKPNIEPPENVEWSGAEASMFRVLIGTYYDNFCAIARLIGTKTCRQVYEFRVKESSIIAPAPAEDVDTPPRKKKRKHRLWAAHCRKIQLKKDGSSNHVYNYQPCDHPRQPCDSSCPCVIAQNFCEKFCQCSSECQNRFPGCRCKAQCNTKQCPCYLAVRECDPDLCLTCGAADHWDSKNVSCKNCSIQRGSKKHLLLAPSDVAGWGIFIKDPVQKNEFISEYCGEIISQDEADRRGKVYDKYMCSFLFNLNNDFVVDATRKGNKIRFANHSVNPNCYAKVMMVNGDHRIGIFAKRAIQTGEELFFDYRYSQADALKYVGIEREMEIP
Sequence of purified human, His-tagged PRC2 complex (O75530 whole entry): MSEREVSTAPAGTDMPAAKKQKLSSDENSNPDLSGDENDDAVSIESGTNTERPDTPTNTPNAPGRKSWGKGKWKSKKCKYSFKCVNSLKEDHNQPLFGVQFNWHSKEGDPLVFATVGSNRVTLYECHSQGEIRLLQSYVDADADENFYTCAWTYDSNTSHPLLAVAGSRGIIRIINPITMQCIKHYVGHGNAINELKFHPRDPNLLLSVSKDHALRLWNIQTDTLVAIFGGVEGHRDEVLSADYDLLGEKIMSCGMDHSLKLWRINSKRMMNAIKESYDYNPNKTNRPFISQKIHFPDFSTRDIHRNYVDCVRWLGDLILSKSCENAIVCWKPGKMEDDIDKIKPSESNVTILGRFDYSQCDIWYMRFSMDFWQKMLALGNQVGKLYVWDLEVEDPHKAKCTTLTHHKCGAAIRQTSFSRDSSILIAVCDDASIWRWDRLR
Sequence of purified human, His-tagged PRC2 complex (Q15022 whole entry partner): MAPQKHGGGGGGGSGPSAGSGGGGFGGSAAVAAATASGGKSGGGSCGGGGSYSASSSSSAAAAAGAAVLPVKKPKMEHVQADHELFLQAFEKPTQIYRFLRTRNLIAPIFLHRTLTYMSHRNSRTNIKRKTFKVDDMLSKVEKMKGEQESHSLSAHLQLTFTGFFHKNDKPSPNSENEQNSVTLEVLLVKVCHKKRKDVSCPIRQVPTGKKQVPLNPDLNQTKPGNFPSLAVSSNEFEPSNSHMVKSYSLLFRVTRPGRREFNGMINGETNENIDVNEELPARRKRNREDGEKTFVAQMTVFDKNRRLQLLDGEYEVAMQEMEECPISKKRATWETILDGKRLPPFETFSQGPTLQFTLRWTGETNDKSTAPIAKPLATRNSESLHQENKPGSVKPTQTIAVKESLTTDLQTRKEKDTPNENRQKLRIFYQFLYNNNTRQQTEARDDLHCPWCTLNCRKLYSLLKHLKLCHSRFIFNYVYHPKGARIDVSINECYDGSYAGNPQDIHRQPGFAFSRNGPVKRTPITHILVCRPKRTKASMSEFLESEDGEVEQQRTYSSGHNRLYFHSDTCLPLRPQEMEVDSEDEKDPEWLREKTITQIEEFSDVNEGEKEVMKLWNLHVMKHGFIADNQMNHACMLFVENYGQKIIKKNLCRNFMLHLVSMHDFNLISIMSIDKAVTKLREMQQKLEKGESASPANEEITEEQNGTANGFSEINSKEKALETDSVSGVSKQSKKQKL
Sequence of purified human, His-tagged PRC2 complex (Q6ZN18 whole entry partner): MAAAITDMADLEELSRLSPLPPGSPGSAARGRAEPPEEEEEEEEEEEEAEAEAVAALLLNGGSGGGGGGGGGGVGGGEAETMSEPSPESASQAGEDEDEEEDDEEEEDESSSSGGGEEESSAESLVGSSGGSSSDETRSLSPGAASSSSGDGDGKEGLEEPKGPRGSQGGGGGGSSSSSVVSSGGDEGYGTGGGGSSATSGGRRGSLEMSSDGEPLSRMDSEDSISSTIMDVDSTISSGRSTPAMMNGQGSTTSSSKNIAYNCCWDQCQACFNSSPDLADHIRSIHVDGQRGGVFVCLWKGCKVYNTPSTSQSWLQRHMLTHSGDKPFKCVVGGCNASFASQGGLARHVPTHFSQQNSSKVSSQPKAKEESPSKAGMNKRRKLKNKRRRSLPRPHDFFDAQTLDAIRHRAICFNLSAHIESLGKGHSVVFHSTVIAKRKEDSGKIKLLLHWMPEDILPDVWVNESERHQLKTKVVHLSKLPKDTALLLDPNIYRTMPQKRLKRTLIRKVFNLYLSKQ
Sequence of purified human, His-tagged PRC2 complex (Q09028 whole entry partner): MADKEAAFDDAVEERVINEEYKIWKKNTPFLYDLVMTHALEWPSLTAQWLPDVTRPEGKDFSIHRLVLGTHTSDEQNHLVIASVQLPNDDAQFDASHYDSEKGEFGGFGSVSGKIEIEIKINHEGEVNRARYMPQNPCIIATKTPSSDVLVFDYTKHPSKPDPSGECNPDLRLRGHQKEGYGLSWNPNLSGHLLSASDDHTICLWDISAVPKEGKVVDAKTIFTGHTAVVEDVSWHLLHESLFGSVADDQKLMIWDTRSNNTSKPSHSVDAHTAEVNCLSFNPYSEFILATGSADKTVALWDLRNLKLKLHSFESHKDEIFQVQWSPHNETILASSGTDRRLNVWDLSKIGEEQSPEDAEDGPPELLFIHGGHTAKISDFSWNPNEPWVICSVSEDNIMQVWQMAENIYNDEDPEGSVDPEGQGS
Protocol: Ten-point dose-response curves for compounds of the present invention were determined using a Hot Spot HMT assay (Reaction Biology Corp; see Horiuchi et al., Assay Drug Dev Technol. (2013) 4: 227-236 doi: 10.1089/adt.2012.480). The assay uses purified human, His-tagged PRC2 complex, including N-terminal His-tagged EZH2 enzyme, N-terminal Flag-tagged embryonic ectoderm development protein (EED), N-terminal His-tagged suppressor of zeste 12 (SUZ12), N-terminal His-tagged AEBP2, and N-terminal His-tagged RbAp48. In this assay, the transfer of the tritiated methyl group from radiolabeled S-adenosyl methionine (SAM) to purified core histone protein by EZH2 is quantitated after filtration to determine the activity of the core PRC2 complex in the presence and absence of compound.
Briefly, compounds of the present invention were solubilized in DMSO and a series of 10, three-fold serial dilutions were made for each compound in 15% DMSO. The initial starting concentration for the serial dilutions of each compound was 1.0 μM. Control samples lacking compound, EZH2 enzyme or various reaction components also were prepared and processed in parallel with compound test samples. SAH (S-(5-adenosyl)-L-homocysteine) was used as a positive control for assay validation.
An aliquot of each serial dilution of test compound was added to deep 384 well plate using Acoustic Technology instrument (Echo 550, LabCyte) containing reaction buffer (50 mM Tris-HCl (pH 8)), 0.01% Brij35, 1 mM EDTA, 1 mM DTT, 1 mM PMSF and 1% DMSO), 10 nM purified PRC2 complex and 0.05 mg/ml core histone H3 in a 5 μl volume. The reaction was mixed gently and then pre-incubated for 20 min at 30° C. The enzymatic reaction was initiated by adding 1 μM S-Adenosyl-L-[methyl-^3H]methionine and incubated for 1 hr at 30° C. After 1 hr, the reaction product was detected using a filter binding method and the amount of tritiated H3 core histone was quantitated using a scintillation counter. The IC50 value for each compound was determined from each 10-point dose-response curve using GraphPad Prism software and the results for compounds of present invention, including compounds of Formula (I) and Formula (II) are shown in Table 6. Key: A=<100 nM; B=>100 nM−<250 nM; and C=>250 nM.

Row | SMILES | IC50 [1] [nM] | IC50 [2] [nM] | IC50 [3] [nM]
1 | COc1ncnc2c(NCc3c(F)ccc4c3CCO4)ncc(-c3cc(C)nn3C)c12 [Example 57, 5-(1,3-dimethyl-1H-pyrazol-5-yl)-N-((5-fluoro-2,3-dihydrobenzofuran-4-yl)methyl)-4-methoxypyrido[3,4-d]pyrimidin-8-amine] | > 500 | > 500 | > 250
2 | Cc1cc(CN(C)C)ccc1-c1cnc(NCc2c(F)ccc3c2CCO3)c2c[nH]c(=O)cc12 [Example 41] | 250 to 500 | 100 to 500 | 100 to 250
3 | Cc1cc(S(C)(=O)=O)ccc1-c1cnc(NCc2c(F)ccc3c2CCO3)c2c[nH]c(=O)cc12 [Example 40] | ≤ 250 | 100 to 500 | 100 to 250
4 | COCCOc1cc2c(-c3cc(C)nn3C)cnc(NCc3c(F)ccc4c3CCO4)c2cn1 [Example 45] | ≤ 250 | 100 to 500 | 100 to 250
5 | Cc1cc(-c2cnc(NCc3c(F)ccc4c3CCO4)c3cnc(N(C)C)cc23)n(C)n1 [Example 49, 4-(1,3-dimethyl-1H-pyrazol-5-yl)-N^1-((5-fluoro-2,3-dihydrobenzofuran-4-yl)methyl)-N^6,N^6-dimethyl-2,7-naphthyridine-1,6-diamine] | > 500 | > 500 | 100 to 250
6 | CN(C)CCn1nccc1-c1cnc(NCc2c(F)ccc3c2CCO3)c2cnncc12 [Example 18, 8-(1-(2-(dimethylamino)ethyl)-1H-pyrazol-5-yl)-N-((5-fluoro-2,3-dihydrobenzofuran-4-yl)methyl)pyrido[3,4-d]pyridazin-5-amine] | ≤ 250 | 100 to 500 | > 250
7 | Cc1cc(-c2cnc(NCc3c(F)ccc4c3CCO4)c3cccnc23)n(C)n1 [Example 51, 8-(1,3-dimethyl-1H-pyrazol-5-yl)-N-((5-fluoro-2,3-dihydrobenzofuran-4-yl)methyl)-1,6-naphthyridin-5-amine] | ≤ 250 | 100 to 500 | > 250
8 | CN(C)CCn1nccc1-c1cnc(NCc2c(F)ccc3c2CCO3)c2c[nH]c(=O)cc12 [Example 46, 5-(1-(2-(dimethylamino)ethyl)-1H-pyrazol-5-yl)-8-(((5-fluoro-2,3-dihydrobenzofuran-4-yl)methyl)amino)-2,7-naphthyridin-3(2H)-one] | ≤ 250 | 100 to 500 | > 250
9 | CCOc1cc2c(-c3cc(C)nn3C)cnc(NCc3c(F)ccc4c3CCO4)c2cn1 [Example 42, 4-(1,3-dimethyl-1H-pyrazol-5-yl)-6-ethoxy-N-((5-fluoro-2,3-dihydrobenzofuran-4-yl)methyl)-2,7-naphthyridin-1-amine] | – | – | 100 to 250

Second part, the compound after the results:

Row | IC50 [1] [nM] | IC50 [2] [nM] | IC50 [3] [nM] | SMILES
10 | ≤ 250 | ≤ 100 | < 100 | Fc1ccc2c(c1CNc1ncc(-c3ccc(CN4CCCC4)cc3)c3cnncc13)CCO2 [Example 2]
11 | ≤ 250 | ≤ 100 | < 100 | CN(C)S(=O)(=O)c1ccc(-c2cnc(NCc3c(F)ccc4c3CCO4)c3cnncc23)cc1 [Example 8]
12 | ≤ 250 | ≤ 100 | < 100 | Cc1cc(CN(C)C)ccc1-c1cnc(NCc2c(F)ccc3c2CCO3)c2cnncc12 [Example 6]
13 | ≤ 250 | ≤ 100 | < 100 | CN(C)C(=O)c1cc(-c2cnc(NCc3c(F)ccc4c3CCO4)c3cnccc23)n(C)n1 [Example 32, 5-(1-(((5-fluoro-2,3-dihydrobenzofuran-4-yl)methyl)amino)-2,7-naphthyridin-4-yl)-N,N,1-trimethyl-1H-pyrazole-3-carboxamide]
14 | ≤ 250 | ≤ 100 | < 100 | CNS(=O)(=O)c1ccc(-c2cnc(NCc3c(F)ccc4c3CCO4)c3cnncc23)cc1 [Example 7]
15 | ≤ 250 | ≤ 100 | < 100 | Cc1ncccc1-c1cnc(NCc2c(F)ccc3c2CCO3)c2cnncc12 [Example 11]
16 | ≤ 250 | ≤ 100 | < 100 | CN1CCc2cc(-c3cnc(NCc4c(F)ccc5c4CCO5)c4cnncc34)ccc2C1 [Example 17, N-((5-fluoro-2,3-dihydrobenzofuran-4-yl)methyl)-8-(2-methyl-1,2,3,4-tetrahydroisoquinolin-6-yl)pyrido[3,4-d]pyridazin-5-amine]
17 | ≤ 250 | ≤ 100 | < 100 | CNCc1ccc(-c2cnc(NCc3c(F)ccc4c3CCO4)c3cncnc23)c(C)c1 [Example 26, N-((5-fluoro-2,3-dihydrobenzofuran-4-yl)methyl)-8-(2-methyl-4-((methylamino)methyl)phenyl)pyrido[4,3-d]pyrimidin-5-amine]

Source: patent US12421228B2 (Mirati Therapeutics, Inc., priority 2019, dated 2025)
